Measured values from paper PMC12741935 (Alzheimer's & Dementia, 2025).

Assays:
[1] = tested on: 14 DIV hippocampal neurons; assay: oTau-induced dendrite degeneration (MAP2 dendrite length, number) in cultured hippocampal neurons; type: cell-based, mouse; conditions: oTau 50 nM + inhibitor 24 h vs oTau alone, NVS-PAK1-1 10 nM, AZ 1 nM, G 5 nM
Method: For in vitro study, all animal procedures were conducted in accordance with the National Institutes of Health Guide for the Care and Use of Laboratory Animals using protocols approved by the institutional animal care and use committee at Stanford University. Timed pregnant C57BL/6 mice (Strain code: 027) were purchased from Charles River Laboratories and delivered on embryonic day 15 (E15), after which E16 embryos were used for primary hippocampal cultures. Primary embryonic mouse hippocampal neuron cultures were plated on poly‐D‐lysine‐coated (10 µg/mL) glass cover slips at 40,000 to 50,000 cells per well in 12‐well plates (Corning Life Sciences). Cells were seeded in plating medium DMEM/F12 supplemented with 10% fetal bovine serum and 1 × penicillin/streptomycin (PS) for 2 hours. Medium was then changed to B‐27 Plus Neuronal Culture System (Invitrogen) supplemented with PS, and 2 mM glutamine.
Immunofluorescence was performed as described previously.[24] Briefly, cultured hippocampal neurons were fixed in 4% formaldehyde for 20 minutes, permeabilized for 6 minutes in 80% ice‐cold methanol, and incubated with primary antibodies at 4°C overnight. Primary antibodies used were rabbit polyclonal MAP2 antibody for labeling dendrites (1:1000, #8707, Cell Signaling) and mouse monoclonal drebrin antibody for labeling dendritic spines (1:300; Cat#ADI‐NBA‐110, Enzo). Secondary antibodies consisted of donkey antirabbit or antimouse conjugated with either FITC or Cy3 (1:400; Jackson ImmunoResearch Laboratories, Inc.).
The cultured hippocampal neurons were imaged using an oil‐based 63x objective on a Leica Stellaris 5 confocal microscope. The cell nucleus was stained with DAPI and imaged at a wavelength of 405 nm (blue channel), the dendrites stained by MAP2 were imaged at 488 nm wavelength (green channel), and the drebrin‐stained spines were imaged at a wavelength of 561 nm (red channel). Z‐stack images of neurons were acquired at a 1024 × 1024 resolution, a zoom factor of 1.0, and a z‐step size of 0.5 µm. The number of steps for every z‐stack picture of a neuron were determined by the size of the neuron in the z‐plane, to ensure that the entirety of a neuron is captured in the picture. The areas to be imaged were selected systematically, starting from the top‐left region to proceeding to the bottom‐right region of a coverslip. For imaging, preference was given to field of views containing isolated neurons versus clustered neurons.
For quantification of drebrin‐positive spines in vitro, the images were analyzed using Imaris 9.3 software. Each image consisted of one major neuron and the “filaments” option in Imaris was applied to manually trace along the dendrites of every neuron, by placing starting and seed points at the beginning and along the length of the dendrites, respectively. The largest dendrite diameter (i.e., Starting Point) was set at 9.00 µm threshold while the thinnest dendrite diameter (i.e., Seed Point) was set at 1.00 µm threshold. After manually tracing the dendrites, the spines along the dendrites were assessed using the automatic “spine detection” function in Imaris. The thinnest spine diameter was set at 0.80 µm threshold while the maximum spine length was set at 5.00 µm. The spine density (number of spines/dendrite length) was then calculated for each neuron. All image acquisition and quantification were performed in a blind manner. For in vitro quantification of dendrite degeneration, Neurolucida (MBF Biosciences) in the manual mode was used to measure the total dendritic length, numbers of dendrites, and dendritic complexity for each neuron.

[2] = tested on: dendritic spines, layer V of somatosensory cortex; assay: Golgi staining, dendritic spine density in somatosensory cortex of 5xFAD mice; type: in vivo
Method: Drug concentrations were prepared immediately before dosing each day. […] The right hemisphere was subjected to Golgi staining as described previously[29] to assess dendrite morphology and dendritic spine density. Briefly, frozen mice brains were rapidly immersed in a modified Golgi-Cox staining solution (developed and provided by […] Jing and Francis Lee, Cornell University) for 9 days at room temperature in the dark. The brains were then incubated in 30% sucrose in dH2O at 4°C for 72 hours, with the solution refreshed after the first 12 hours. Next, 150 μm sections were prepared using a vibratome and mounted onto slides coated with 0.3% gelatin. After a brief drying period, slides were dipped three times in 40% sucrose and air dried for 72 hours in the dark. After dH2O washes, sections were developed using a staining solution, rinsed again, dehydrated through a graded ethanol series, cleared in xylene, and cover slipped with DPX mounting medium. Brain sections stained using the Golgi-Cox method were imaged with a Zeiss brightfield microscope equipped with the Neurolucida software (MBF Biosciences). The Neurolucida software was used to acquire neuron pictures, trace neuronal dendrites, and quantify dendritic spine density. […] After a neuron was selected, the 100 × oil immersion objective was used to perform real time dendritic tracing using Neurolucida's live mode. The soma was outlined using the “cell body” option followed by manual tracing of apical and basal dendrites using the respective “dendrite tracing” options. After the tracing was finished, spines were manually marked along the dendrites. A.DAT file was saved for each neuron post completion of dendrite and spine tracing and imported into Neurolucida Explorer, which is used to perform quantitative structural analysis and dendrite length and number of spines data for each neuron is exported. The spine density is calculated by dividing number of spines/dendrite length separately for apical and basal dendrites for each neuron.

[3] = Body weight during chronic twice daily oral dosing of aged 5xFAD mice; type: in vivo; conditions: 8- to 9-month-old 5xFAD, twice daily oral administration, within first 31 days; seen with both NVS-PAK1-1 and vehicle
Method: Serial blood was collected from n = 3 per treatment group at 0.5, 1, 2, and 4 hours post dose; with terminal blood and brain collected at 4 hours post dose. A staggered cohort of n = 3 per treatment group were assigned to serial blood collections at 0.5, 1, 2, and 8 hours post dose with terminal blood and brain collected at 4 and 24 hours post dose. Informed by exposure data from the initial PK/PD study, a subsequent chronic PK/PD study was designed to evaluate twice daily treatment of 100 mg/kg (PO) in female and male 5xFAD mice compared to age‐ and sex‐matched vehicle‐treated 5xFAD and vehicle‐treated WT littermate controls (Table S2 in supporting information). Terminal blood and brain was collected at 4 hours after the final dose. […] All in vivo target engagement and PK/PD studies were conducted under blinded conditions for age, genotype, and treatment, and the blind was maintained until after analyses were conducted.
Drug concentrations were prepared immediately before dosing each day. The dose volume was delivered at 10 mL/kg based on each subject's daily weight collected just prior to the morning dose and administered via PO. For the chronic PD study, twice daily dosing (BID) was conducted between 7:00 and 9:00 am each morning and 3:00 to 5:00 pm each evening with the same day's formulation stored at 4°C between dosing intervals.

[4] = young male 5xFAD, 100 mg/kg BID PO 12 weeks

Structure (SMILES): CC(C)NC(=O)N1CC[C@H](NC2=Nc3cc(F)ccc3N(CC(F)F)c3ccc(Cl)cc32)C1 [NVS‐PAK1‐1, (S)‐3‐([2‐chloro‐5‐(2,2‐difluoroethyl)‐8‐fluoro‐5H‐dibenzo[b,e][1,4]diazepin‐11‐yl]amino)‐N‐isopropylpyrrolidine‐1‐carboxamide]
- dendrite number per neuron [1]: significantly increased dendrite number per neuron
- total dendrite length per neuron ([1]; PAK1-C 10 nM): preserved dendrite length
- apical dendritic spine density, somatosensory cortex ([2]; female 5xFAD, 100 mg/kg BID PO 12 weeks from 3 to 6 months of age, P < 0.01): prevented the loss
- basal dendritic spine density, somatosensory cortex ([2]; female 5xFAD, 100 mg/kg BID PO 12 weeks from 3 to 6 months of age, P < 0.05): prevented the loss
- apical spine density, somatosensory cortex [2, 4]: no significant difference
- basal spine density, somatosensory cortex [2, 4]: no significant difference
- weight loss [3]: ≈ 20%
